Results taken from patent EP4707280A1, “1,4-CINEOLE DERIVATIVE AND INTERMEDIATE THEREOF, HERBICIDE CONTAINING SAID DERIVATIVE AS ACTIVE INGREDIENT, METHOD FOR USING HERBICIDE, AND METHOD FOR PREPARING AGROCHEMICAL COMPOSITION” (HOKKO CHEMICAL INDUSTRY CO., LTD., priority 2023, dated 2024).

Tests used:
Assay type in all cases: in vivo
[1] = tested on: Echinochloa crus-galli var. formosensis; test: Test Example 1: herbicidal effect test by soil application in paddy rice; conditions: Echinochloa crus-galli, soil, 336 h; 120 g active ingredient per 10 ares; applied immediately after sowing, flooded pots; 14 days after application; read-out: weed inhibition rate
How it was run: (§1)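 Flooded-pot paddy assay: sow at 0–1 cm, flood to about 3 cm, then apply diluted emulsifiable concentrate by dropper, 120 g a.i. per 10 ares; greenhouse-grown.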

[2] = tested on: Scirpus juncoides; test: as above; conditions: Schoenoplectiella juncoides, soil, 336 h; 120 g active ingredient per 10 ares; applied immediately after sowing, flooded pots; 14 days after application; read-out: weed inhibition rate
How it was run: as §1

[3] = tested on: Echinochloa crus-galli var. formosensis; test: Test Example 2: herbicidal effect test by application during growth period of paddy rice; conditions: Echinochloa crus-galli; 120 g per 10 ares; applied seven days after sowing, flooded pots; 14 days after application; read-out: weed inhibition rate
How it was run: (§2)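 Weeds sown into puddled, flooded paddy soil received a post-emergence water application of emulsifiable concentrate at 120 g active ingredient per 10 ares, seven days after sowing. Herbicidal effect was rated 14 days later as inhibition (%).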

[4] = tested on: Scirpus juncoides; test: as above; conditions: Schoenoplectiella juncoides; 120 g per 10 ares; applied seven days after sowing, flooded pots; 14 days after application; read-out: weed inhibition rate
How it was run: as §2

[5] = tested on: Digitaria ciliaris; test: Test Example 3: herbicidal effect test by soil application in upland field; conditions: Digitaria ciliaris, 120 g per 10 ares, sprayed one day after sowing, 14 days after application, read-out: weed inhibition rate
How it was run: (§3)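 Weed inhibition (%) was assessed 14 days after treatment, in duplicate per concentration group. Seeds had been mixed into the upper 1 cm of upland alluvial loam, and the soil surface was sprayed one day later with the diluted emulsifiable concentrate at 120 g active ingredient per 10 ares.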

[6] = tested on: Echinochloa crus-galli; test: as above; conditions: Echinochloa crus-galli, 120 g per 10 ares, sprayed one day after sowing, 14 days after application, read-out: weed inhibition rate
How it was run: as §3

[7] = tested on: Digitaria ciliaris; test: Test Example 4: herbicidal effect test by stem and leaf treatment in upland field; conditions: Digitaria ciliaris; 120 g per 10 ares; sprayed seven days after sowing, upland soil; 14 days after application; read-out: weed inhibition rate
[8] = tested on: Echinochloa crus-galli; test: as above; conditions: Echinochloa crus-galli; 120 g per 10 ares; sprayed seven days after sowing, upland soil; 14 days after application; read-out: weed inhibition rate
[9] = tested on: Echinochloa crus-galli var. formosensis; test: Test Example 5: herbicidal effect test by soil application in paddy rice (low dose); conditions: Echinochloa crus-galli, soil, 336 h; 7.5 g per 10 ares; applied immediately after sowing, flooded pots; 14 days after application; read-out: weed inhibition rate
How it was run: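 Pots of puddled, fertilized paddy soil receive 30 seeds per species at 0–1 cm depth and are flooded to about 3 cm. The diluted emulsifiable concentrate is then dropped onto the water, delivering 7.5 g active ingredient per 10 ares. Greenhouse grown; herbicidal effect scored 14 days later, two replicates.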

[10] = tested on: Echinochloa crus-galli var. formosensis; test: Test Example 6: herbicidal effect test by application during growth period of paddy rice (low dose); conditions: Echinochloa crus-galli; 7.5 g per 10 ares; applied seven days after sowing, flooded pots; 14 days after application; read-out: weed inhibition rate
How it was run: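 Puddled, fertilised paddy soil was sown with 30 seeds per species and flooded to about 3 cm. After 7 days in a glass greenhouse, the diluted emulsifiable concentrate went into the water by dropper at 7.5 g/10 a. Effect scored at 14 days.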

[11] = tested on: Digitaria ciliaris; test: Test Example 7: herbicidal effect test by soil application in upland field (low dose); conditions: Digitaria ciliaris, 7.5 g per 10 ares, sprayed one day after sowing, 14 days after application, read-out: weed inhibition rate
Protocol: (§4) The present test was conducted in duplicate for each chemical concentration group, and the weed inhibition rate (%) was determined 14 days after chemical application using the following formula (Math. 1). [formula]
(§5) Pots with an area of 36 cm^2 were filled with upland soil (alluvial loam), twenty seeds each of weeds of Digitaria ciliaris, and Echinochloa crus-galli were uniformly mixed with the top 1 cm layer of soil and the surface was lightly pressed down. One day after sowing, an emulsifiable concentrate prepared according to Formulation Example 5 using the compound shown below was diluted with water, and the diluted solution was sprayed onto the soil surface at a rate of 100 liters per 10 ares. The amount of the active ingredient to be applied was equivalent to 7.5 g per 10 ares. Fourteen days after chemical application, the herbicidal effect was evaluated according to the same criteria as in Test Example 1.

[12] = tested on: Echinochloa crus-galli; test: as above; conditions: Echinochloa crus-galli, 7.5 g per 10 ares, sprayed one day after sowing, 14 days after application, read-out: weed inhibition rate
Protocol: as §4, §5

[13] = tested on: Digitaria ciliaris; test: Test Example 8: herbicidal effect test by stem and leaf treatment in upland field (low dose); conditions: Digitaria ciliaris; 7.5 g per 10 ares; sprayed seven days after sowing, upland soil; 14 days after application; read-out: weed inhibition rate
[14] = tested on: Echinochloa crus-galli; test: as above; conditions: Echinochloa crus-galli; 7.5 g per 10 ares; sprayed seven days after sowing, upland soil; 14 days after application; read-out: weed inhibition rate

CC(C)C12C=CC(C)(O1)C(OCc1ccsc1)C2 (stereo not shown) [3-757, 1-isopropyl-4-methyl-5-(3-thienylmethoxy)-7-oxabicyclo[2.2.1]hept-2-ene]
≥ 80%: pest or weed control at 1200 g/ha [1] | pest or weed control at 1200 g/ha [2] | inhibition at 1200 g/ha [3] | inhibition at 1200 g/ha [4] | inhibition at 1200 g/ha [5] | inhibition at 1200 g/ha [6] | inhibition at 1200 g/ha [7] | inhibition at 1200 g/ha [8] | inhibition at 75 g/ha [9] | inhibition at 75 g/ha [10] | inhibition at 75 g/ha [11] | inhibition at 75 g/ha [12] | inhibition at 75 g/ha [13] | inhibition at 75 g/ha [14]

Cc1ccccc1COC1CC2(C(C)C)OC1(C)CC2I (stereo not shown) [1-1409, 5-iodo-1-methyl-2-[(2-methylphenyl)methoxy]-4-isopropyl-7-oxabicyclo[2.2.1]heptane]
≥ 80%: pest or weed control at 1200 g/ha [1] | pest or weed control at 1200 g/ha [2] | inhibition at 1200 g/ha [3] | inhibition at 1200 g/ha [4] | inhibition at 1200 g/ha [5] | inhibition at 1200 g/ha [6] | inhibition at 1200 g/ha [7] | inhibition at 1200 g/ha [8] | inhibition at 75 g/ha [9] | inhibition at 75 g/ha [10] | inhibition at 75 g/ha [11] | inhibition at 75 g/ha [12] | inhibition at 75 g/ha [13] | inhibition at 75 g/ha [14]

CC(C)[C@]12C[C@@H](OCc3ccsc3)[C@](C)(C[C@@H]1Cl)O2 [1-662, (1R,2S,4S,5R)-2-chloro-1-isopropyl-4-methyl-5-(3-thienylmethoxy)-7-oxabicyclo[2.2.1]heptane]
≥ 80%: pest or weed control at 1200 g/ha [1] | pest or weed control at 1200 g/ha [2] | inhibition at 1200 g/ha [3] | inhibition at 1200 g/ha [4] | inhibition at 1200 g/ha [5] | inhibition at 1200 g/ha [6] | inhibition at 1200 g/ha [7] | inhibition at 1200 g/ha [8] | inhibition at 75 g/ha [9] | inhibition at 75 g/ha [10] | inhibition at 75 g/ha [11] | inhibition at 75 g/ha [12] | inhibition at 75 g/ha [13] | inhibition at 75 g/ha [14]

CC(C)[C@]12C[C@@H](OCc3ccccc3F)[C@](C)(C[C@@H]1C)O2 (racemic) [1-1555, (1SR,2RS,4RS,5SR)-2-[(2-fluorophenyl)methoxy]-1,5-dimethyl-4-isopropyl-7-oxabicyclo[2.2.1]heptane]
≥ 80%: pest or weed control at 1200 g/ha [1] | pest or weed control at 1200 g/ha [2] | inhibition at 1200 g/ha [3] | inhibition at 1200 g/ha [4] | inhibition at 1200 g/ha [5] | inhibition at 1200 g/ha [6] | inhibition at 1200 g/ha [7] | inhibition at 1200 g/ha [8] | inhibition at 75 g/ha [9] | inhibition at 75 g/ha [10] | inhibition at 75 g/ha [11] | inhibition at 75 g/ha [12] | inhibition at 75 g/ha [13] | inhibition at 75 g/ha [14]

CC#CCO[C@@H]1C[C@]2(C(C)C)O[C@@]1(C)C[C@@H]2Cl [1-614, (1R,2S,4S,5R)-5-but-2-ynoxy-2-chloro-1-isopropyl-4-methyl-7-oxabicyclo[2.2.1]heptane]
≥ 80%: pest or weed control at 1200 g/ha [1] | pest or weed control at 1200 g/ha [2] | inhibition at 1200 g/ha [3] | inhibition at 1200 g/ha [4] | inhibition at 1200 g/ha [5] | inhibition at 1200 g/ha [6] | inhibition at 1200 g/ha [7] | inhibition at 1200 g/ha [8] | inhibition at 75 g/ha [9] | inhibition at 75 g/ha [10] | inhibition at 75 g/ha [11] | inhibition at 75 g/ha [12] | inhibition at 75 g/ha [13] | inhibition at 75 g/ha [14]

CC(C)C12CC(OCc3ccccc3I)C(C)(CC1I)O2 (stereo not shown) [1-1430, 2-iodo-5-[(2-iodophenyl)methoxy]-1-isopropyl-4-methyl-7-oxabicyclo[2.2.1]heptane]
≥ 80%: pest or weed control at 1200 g/ha [1] | pest or weed control at 1200 g/ha [2] | inhibition at 1200 g/ha [3] | inhibition at 1200 g/ha [4] | inhibition at 1200 g/ha [5] | inhibition at 1200 g/ha [6] | inhibition at 1200 g/ha [8] | inhibition at 75 g/ha [9] | inhibition at 75 g/ha [10] | inhibition at 75 g/ha [11] | inhibition at 75 g/ha [12] | inhibition at 75 g/ha [13] | inhibition at 75 g/ha [14]

Cc1ccccc1COC1CC2(C(C)C)C=CC1(C)O2 (stereo not shown) [3-753, 4-methyl-5-[(2-methylphenyl)methoxy]-1-isopropyl-7-oxabicyclo[2.2.1]hept-2-ene]
≥ 80%: pest or weed control at 1200 g/ha [1] | pest or weed control at 1200 g/ha [2] | inhibition at 1200 g/ha [3] | inhibition at 1200 g/ha [4] | inhibition at 1200 g/ha [5] | inhibition at 1200 g/ha [6] | inhibition at 1200 g/ha [8] | inhibition at 75 g/ha [9] | inhibition at 75 g/ha [10] | inhibition at 75 g/ha [11] | inhibition at 75 g/ha [12] | inhibition at 75 g/ha [13] | inhibition at 75 g/ha [14]

CC(C)[C@]12C[C@@H](OCc3ccc(F)cc3F)[C@](C)(CC1=O)O2 [2-16, (1R,4S,5R)-5-((2,4-difluorobenzyl)oxy)-1-isopropyl-4-methyl-7-oxabicyclo[2.2.1]heptan-2-one]
≥ 80%: pest or weed control at 1200 g/ha [1] | pest or weed control at 1200 g/ha [2] | inhibition at 1200 g/ha [3] | inhibition at 1200 g/ha [5] | inhibition at 1200 g/ha [6] | inhibition at 1200 g/ha [7] | inhibition at 1200 g/ha [8] | inhibition at 75 g/ha [9] | inhibition at 75 g/ha [10] | inhibition at 75 g/ha [11] | inhibition at 75 g/ha [12] | inhibition at 75 g/ha [13] | inhibition at 75 g/ha [14]
